For one experiment, the system named is humans. Description: Spinal (vertebral) BMD, loading vs standard doses of bisphosphonates over one year. The experiment is classed as in vivo, human. As for the experimental part: FIG. 4. illustrates the effects of standard recommended dose of risedronate (35 mg once a week), vs. loading dose of risedronate (for doses, see the section on oral administration of bisphosphonates) on vertebral BMD.
This will then be followed up with once weekly administration (i.e., infrequent administration) of a single dose of similar strength, what is currently used on a longer-term basis.

The next experiment relates to osteoporotic patients. The settings on record: intravenous injections 0.5 or 1.0 mg every 3 months for 3 years; cited from earlier work.

On to `NCCCC(O)(P(=O)(O)O)P(=O)(O)O` [alendronate, 4-amino-1-hydroxybutylidene-1,1-bisphosphonic acid monosodium trihydrate], for which the “Increase in spinal BMD” value is “+1.2%” with humans (alendronate loading dose, 3 months); “+3.6%” with humans (alendronate loading dose, 6 months); “+5.8%” in the experiment with humans (alendronate loading dose, 12 months); “+0.4%” in the experiment with humans (alendronate standard dose (70 mg once a week), 3 months); “+1.1%” in the experiment with humans (alendronate standard dose (70 mg once a week), 6 months); “+4.5%” in the experiment with humans (alendronate standard dose (70 mg once a week), 12 months).

As to `O=P(O)(O)C(O)(Cc1cccnc1)P(=O)(O)O` [risedronate, 1-hydroxy-2-(3-pyridinyl)-ethylidene-1,1-bisphosphonic acid], the “Increase in spinal BMD” value was “+1.5%” in the experiment on humans (risedronate loading dose, 3 months); “+4.0%” in the experiment with humans (risedronate loading dose, 6 months); “+5.6%” with humans (risedronate loading dose, 12 months); “+0.4%” in the experiment with humans (risedronate standard dose (35 mg once a week), 3 months); “+2.2%” with humans (risedronate standard dose (35 mg once a week), 6 months); “+4.3%” in the experiment with humans (risedronate standard dose (35 mg once a week), 12 months).

`CCCCCN(C)CCC(O)(P(=O)(O)O)P(=O)(O)O` [ibandronate, 1-hydroxy-3-(N-methyl-N-pentylamino)propylidene-1,1-bisphosphonic acid]: in the experiment with osteoporotic patients, the “Change in BMD” value was “moderate increase in BMD” and the “Change in incidence of new osteoporotic fractures” value is “small, but not significant, decrease”.

Source of the values: US20040097468A1, “Method of treating osteoporosis and other bone disorders with upfront loading of bisphosphonates, and kits for such treatment” (priority 2002, published 2004).
